Values after ≈ are worked out from the molar mass of the structure shown. Active and inactive are the calls of the source. The calls are words filed in the database; no cut-off is given here.
Test system: KB
Test: Cytotoxicity against human KB cells
Assay type: functional
Details: for EC50: read-out: ED50 (the source's name)

SMILES	EC50	Activity
CC1(C)OC[C@@]23[C@@H]4OC(C)(C)O[C@@H]4[C@]4(C)C(=CC[C@@H]5[C@@]6(C)CC[C@H](O)C(C)(C)[C@@H]6CC[C@]54C)[C@@H]2CC(C)(C)[C@@H](O)[C@@H]3O1	4 µg/mL (≈ 6.82 µM)	–
CC1(C)C[C@H]2C3=CC[C@@H]4[C@@]5(C)CC[C@H](O)C(C)(C)[C@@H]5CC[C@@]4(C)[C@]3(C)C[C@@H](O)[C@@]2(CO)[C@@H](O)[C@@H]1O	–	inactive
C/C=C(/C)C(=O)O[C@H]1[C@H](O)[C@]2(CO)[C@H](O)C[C@]3(C)C(=CC[C@@H]4[C@@]5(C)CC[C@H](O)C(C)(C)[C@@H]5CC[C@]43C)[C@@H]2CC1(C)C	3 µg/mL (≈ 5.24 µM)	–
CC1(C)C[C@H]2C3=CC[C@@H]4[C@@]5(C)CC[C@H](O)C(C)(C)[C@@H]5CC[C@@]4(C)[C@]3(C)[C@@H](O)[C@@H](O)[C@@]2(CO)[C@@H](O)[C@@H]1O	–	inactive
C/C=C(/C)C(=O)O[C@H]1[C@H](OC(=O)/C(C)=C/C)C(C)(C)C[C@H]2C3=CC[C@@H]4[C@@]5(C)CC[C@H](O)C(C)(C)[C@@H]5CC[C@@]4(C)[C@]3(C)[C@@H](O)[C@@H](O)[C@]21CO [HIPPOCAESCULIN]	3.6 µg/mL (≈ 5.37 µM)	–
